According to article PMC9102502, “The Influence of Selected Antipsychotic Drugs on Biochemical Aspects of Alzheimer’s Disease” (International Journal of Molecular Sciences, 2022):
Read-outs that look alike come from different tables or passages of the source.

How the values were obtained:
astrocytes = assay: WST-1 viability under AAPH-induced oxidative stress, astrocytes; assay type: cell-based, human; settings: benperidol 5 and 10 μg/L, penfluridol 12.5 μg/L, pimozide 15 μg/L, promazine 25 and 50 μg/L
Experimental: WST-1 assay (Takara, Takara Bio Europe, Saint-Germain-en-Laye, France) was used to assess the effects of antipsychotics on the growth of HUVEC and astrocytes. The experiments were conducted as described previously. HUVEC were seeded at a density of 7500 cells, and astrocytes at 5000 cells per well on 96-well microplates and cultured for 24 h followed by treatment with compounds at ½ × TPCmax and TPCmax or pure medium as a control (v = 100 μL) for another 24 h (37 °C, 5% CO2). Subsequently, the cells were washed with culture medium (100 μL) and WST-1 reagent diluted in medium (10 μL of reagent + 90 μL of medium) was added. The plates were incubated at 37 °C in 5% CO2 for another 90 min for HUVEC and 60 min for astrocytes. The absorbance was read at 450 nm using a microplate reader (iMARK, Bio-Rad, Hercules, CA, USA). The cells viability was expressed as a percentage of the control samples which constituted 100% viability.
Moreover, the WST-1 assay was used to evaluate potential protective effects of antipsychotics on the growth of HUVEC and astrocytes under conditions of AAPH-induced oxidative stress. The experimental conditions were the same as in viability studies. AA at the final concentration of 10 μg/mL was used as an antioxidant control. After reaching the confluence, the antipsychotics were added at concentrations equaling ½ × TPCmax and TPCmax. After 1 h incubation under standard conditions, 50 μL AAPH was added to the wells containing tested compounds or AA. The AAPH concentration was chosen on the basis of preliminary experiments—17.5 mmol/L in HUVEC experiments, and 15.0 mmol/L in the case of astrocytes.

human erythrocytes [1] = assay: Methemoglobin formation in RBC with AAPH; assay type: cell-based; settings: 24 h, AAPH control 78.1%
Experimental: The blood samples were centrifuged (3000 rpm, 10 min, 20 °C, Micro 22 R centrifuge, Hettich Zentrifugen, Tuttlingen, Germany) to separate erythrocytes from the plasma and washed three times with 0.9% saline (NaCl). […] The erythrocytes were suspended in 0.9% saline. As control of basal hemolysis, erythrocytes were incubated with 0.9% NaCl. For total hemolysis control erythrocytes were incubated with 2.0% v/v Triton X-100. Incubation with Triton X-100 and K4[Fe(CN)6] (at concentration 50 g/L) was performed to control methemoglobin (MetHb) formation. Moreover, an antioxidant control containing ascorbic acid (AA) at a concentration of 10 µg/mL was prepared, while AAPH at a concentration of 50 mmol/L was an oxidizing agent. Antipsychotics at concentrations equaling their maximum therapeutic plasma concentrations (TPCmax), as well as 5-fold higher (5 × TPCmax) and 5-fold lower than TPCmax (1/5 × TPCmax), and the oxidizing agent AAPH at a concentration of 50 mmol/L, were added to 2% RBC suspension. Controls and tested samples were incubated at 37 °C. […] For each measurement, 0.5 mL samples were taken from incubated Eppendorf tubes and centrifuged (3000 rpm, 10 min). […] The percentage of hemolysis was calculated with the following formula:Hemolysis (%) = (Asample/Atotal hemolysis) × 100%(1) where Asample—absorbance of the test sample; Atotal hemolysis—the absorbance of the reference sample with 2% Triton X solution, corresponding to complete hemolysis.

[2] = target: T1, recombinant human β-amyloid (1–42) (Homo sapiens, UniProt P05067); assay: Beta-amyloid aggregation, Thioflavin T fluorescence; assay type: biochemical; settings: 24 and 48 h; both tested concentrations
T1 construct: recombinant human β-amyloid (1–42; ultrapure); purchased Sigma-Aldrich (St. Louis, MO, USA)
T1 sequence (P05067 672-713 limits assumed): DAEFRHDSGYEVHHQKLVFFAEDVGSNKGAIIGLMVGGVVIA
Experimental: Aβ42 peptide was dissolved in DMSO and left to hydrate for a few minutes. The solution was centrifuged at 10,000 rpm for 5 min at 4 °C to separate any precipitated material. The solution at a concentration of 220 μmol/L was stored in small aliquots at a temperature of −30 °C and before each experiment it was restored at 37 °C for 15 min. Test samples containing Aβ42 solution at the final concentration of 20 μmol/L was incubated with antipsychotics at concentrations equaling their TPC and 1/2 × TPC (v = 10 µL). The final volume of the test samples was 100 μL. The positive control constituted a sample of Aβ42 peptide, whereas the negative control contained tannic acid at the final concentrations of 0.1 µmol/L and 10 µmol/L. The fibrillation reaction was set up by addition of thioflavin ThT dye at a concentration of 5 µmol/L. The fluorescence intensity was measured at room temperature with Ex/Em = 440 nm/484 nm (Synergy H1; BioTek, Winooski, VT, USA). The measurements of fluorescence intensity expressed as relative fluorescence units (RFU) were taken at 10, 30, 60 and 90 min and then after 24 and 48 h. The fluorescence intensity measured for control equaled 100% of Aβ aggregation and it was used to estimate the inhibitory properties of the tested antipsychotics.

human erythrocytes [3] = assay: RBC hemolysis, compounds alone; assay type: cell-based; settings: 2% human erythrocyte (RBC) suspension, read-out: increase of disintegration of the erythrocyte membrane (hemolysis)
Experimental: (§1) The blood samples were centrifuged (3000 rpm, 10 min, 20 °C, Micro 22 R centrifuge, Hettich Zentrifugen, Tuttlingen, Germany) to separate erythrocytes from the plasma and washed three times with 0.9% saline (NaCl). […] The erythrocytes were suspended in 0.9% saline. As control of basal hemolysis, erythrocytes were incubated with 0.9% NaCl. For total hemolysis control erythrocytes were incubated with 2.0% v/v Triton X-100. Incubation with Triton X-100 and K4[Fe(CN)6] (at concentration 50 g/L) was performed to control methemoglobin (MetHb) formation. Moreover, an antioxidant control containing ascorbic acid (AA) at a concentration of 10 µg/mL was prepared, while AAPH at a concentration of 50 mmol/L was an oxidizing agent. Antipsychotics at concentrations equaling their maximum therapeutic plasma concentrations (TPCmax), as well as 5-fold higher (5 × TPCmax) and 5-fold lower than TPCmax (1/5 × TPCmax), and the oxidizing agent AAPH at a concentration of 50 mmol/L, were added to 2% RBC suspension. Controls and tested samples were incubated at 37 °C. […] The percentage of hemolysis was calculated with the following formula:Hemolysis (%) = (Asample/Atotal hemolysis) × 100%(1) where Asample—absorbance of the test sample; Atotal hemolysis—the absorbance of the reference sample with 2% Triton X solution, corresponding to complete hemolysis.

human erythrocytes [4] = assay: Methemoglobin formation in RBC, compounds alone; assay type: cell-based; settings: 250 μg/L
Experimental: as §1

[5] = target: T2, human plasma butyrylcholinesterase (Homo sapiens, UniProt P06276); assay: BuChE inhibition, modified Ellman's method; assay type: biochemical; settings: experimental data, mean ± SD, n = 6–9
T2 construct: The solution of plasma 200-fold diluted with 0.9% NaCl; from tissue; host or cells: citrated plasma from blood of healthy human donors
T2 sequence (P06276 29-602): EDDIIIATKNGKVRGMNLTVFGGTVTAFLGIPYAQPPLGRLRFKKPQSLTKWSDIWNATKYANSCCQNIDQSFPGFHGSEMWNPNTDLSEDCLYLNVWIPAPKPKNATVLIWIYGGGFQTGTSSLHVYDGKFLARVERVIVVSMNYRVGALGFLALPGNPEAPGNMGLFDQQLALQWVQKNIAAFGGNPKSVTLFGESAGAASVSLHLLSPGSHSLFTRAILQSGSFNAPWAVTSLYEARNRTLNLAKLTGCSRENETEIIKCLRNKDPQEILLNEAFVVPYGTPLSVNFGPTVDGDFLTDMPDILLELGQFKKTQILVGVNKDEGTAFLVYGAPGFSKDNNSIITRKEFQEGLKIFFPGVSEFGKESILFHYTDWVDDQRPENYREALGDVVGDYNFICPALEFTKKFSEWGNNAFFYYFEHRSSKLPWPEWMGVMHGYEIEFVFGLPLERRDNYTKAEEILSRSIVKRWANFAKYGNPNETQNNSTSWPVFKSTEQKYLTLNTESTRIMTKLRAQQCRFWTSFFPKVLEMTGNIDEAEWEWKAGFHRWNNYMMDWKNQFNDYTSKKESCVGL
Experimental: (§2) The activity of both cholinesterases (AChE and BuChE) were assessed spectrophotometrically according to the Ellman’s method with some modifications by Worek et al.. This test development included experimental determination of the optimal testing conditions. For all measurements, 37 °C was used as the best temperature for enzymatic determinations in material of human origin.
(§3) The solution of plasma 200-fold diluted with 0.9% NaCl and solution of hemolyzed erythrocytes diluted 400-fold with 0.9% were incubated (37 °C, 15 min) with 5 μL DTNB (0.01 mol/L) and 10 μL tested compound at a wider range of concentration than the therapeutic range in order to assess the overall effect of the compound on human esterases (AChE and BuChE). The controls without antipsychotics, containing only DTNB and diluted plasma or diluted solution of hemolyzed erythrocytes, were prepared. […] The final volume of a sample was 500 μL. […] The maximal velocity of the reaction was determined on the basis of changes in absorbance over time.
(§4) AChE SI (selectivity index) was calculated by using the following formula: SI = IC50 of BuChE/IC50 of AChE. However, BuChE SI was defined as IC50 of AChE/IC50 of BuChE. Maximal velocity (Vmax) and the Michaelis constant (Km) were calculated with the use of linear regression—according to the Hanes–Woolf plot.

[6] = target: T3, human erythrocyte acetylcholinesterase (Homo sapiens, UniProt P22303); assay: AChE inhibition, modified Ellman's method; assay type: biochemical; settings: for AChE reaction velocity: control 0.259 ± 0.013 A/min
T3 construct: solution of hemolyzed erythrocytes diluted 400-fold; from tissue; host or cells: hemolyzed erythrocytes from blood of healthy human donors
T3 sequence (P22303 32-617 isoform P22303-2 limits assumed): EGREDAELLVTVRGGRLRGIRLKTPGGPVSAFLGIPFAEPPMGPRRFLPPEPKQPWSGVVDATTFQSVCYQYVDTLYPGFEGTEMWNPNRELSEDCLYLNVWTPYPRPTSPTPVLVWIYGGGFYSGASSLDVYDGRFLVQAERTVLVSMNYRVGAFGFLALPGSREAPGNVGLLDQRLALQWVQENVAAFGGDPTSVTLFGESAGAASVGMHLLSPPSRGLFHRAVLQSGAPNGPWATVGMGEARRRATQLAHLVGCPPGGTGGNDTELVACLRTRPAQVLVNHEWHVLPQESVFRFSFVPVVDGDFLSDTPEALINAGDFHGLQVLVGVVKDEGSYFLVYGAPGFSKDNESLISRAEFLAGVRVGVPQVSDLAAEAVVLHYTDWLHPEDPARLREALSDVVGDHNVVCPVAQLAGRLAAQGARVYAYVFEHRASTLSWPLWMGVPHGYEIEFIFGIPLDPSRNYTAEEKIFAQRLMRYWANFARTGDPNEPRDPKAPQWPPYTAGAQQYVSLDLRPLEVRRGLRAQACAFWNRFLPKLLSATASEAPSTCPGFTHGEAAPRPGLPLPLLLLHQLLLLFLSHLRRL
Experimental: as §2, §3, §4

BuChE = BuChE (Homo sapiens, UniProt P06276); assay: Kinetic parameters of enzymatic reaction (Hanes–Woolf), BuChE; assay type: biochemical; design: The solution of plasma 200-fold diluted with 0.9% NaCl; from tissue; host or cells: citrated plasma from blood of healthy human donors
Sequence of BuChE (P06276 29-602): as the sequence (P06276 29-602) above
Experimental: Kinetic parameters were obtained on the basis of three individual experiments carried out on different biological materials. For this purpose, various concentrations of substrates (ATC and BTC) were used in experiments. The type of inhibition and kinetic parameters of enzymatic reactions were obtained by linear regression using the Hanes–Woolf equations.
as §4

CN(C)CCCN1c2ccccc2Sc2ccccc21 [Promazine, promazine]
astrocyte viability compared with the control (pure AAPH) (astrocytes): statistically significant increase
methemoglobin formation with AAPH (human erythrocytes [1]; 10 μg/L): 60.7%
methemoglobin formation with AAPH (human erythrocytes [1]; 50 μg/L): 54.5%
effect on Aβ aggregation after a longer incubation time [2]: substantially inhibit
hemolysis at 5 h, 250 μg/L (human erythrocytes [3]; 5 h of incubation): > 45%
hemolysis at 24 h, 250 μg/L (human erythrocytes [3]; 24 h of incubation): > 59%
formation of methemoglobin (human erythrocytes [4]; 5 h of incubation): 39%
formation of methemoglobin (human erythrocytes [4]; 24 h of incubation): 64%
IC50 ([5]; IC50 BuChE): 186 nM
IC50 ([5]; read-out: IC50 BuChE): 190 ± 20 nM
AChE reaction velocity ([6]; 100 µg/L): 0.245 ± 0.015 A/min
AChE reaction velocity ([6]; 200 µg/L): 0.232 ± 0.016 A/min
IC50 ([6]; theoretical values calculated on the basis of extrapolated plots): > 2000 nM
Vmax(i) BuChE (BuChE; compound at its IC50): 0.144 ± 0.036 A/min
Vmax(i) BuChE (BuChE; compound at ½ IC50): 0.192 ± 0.059 A/min
type of inhibition of BuChE (BuChE; from Km(i), Vmax(i) vs Km, Vmax, mixed inhibition): same type of inhibition
